Measurements: patent US9284321B2, “Piperazino[1,2-a]indol-1-ones and [1,4]diazepino[1,2-a]indol-1-one” (Hoffmann-La Roche Inc., priority 2012, dated 2016)

Tests used:
[1] = tested on: human embryonic stem cell derived neural stem cells (NSCs); assay: Neural Stem Cell Proliferation Assay (neurogenesis assay, ATP levels by CellTiterGlo); format: cell-based; conditions: 96 h, compound concentration at which 150% activity of control (100%) is reached, NSC proliferation by ATP level after 4 days incubation, dose response 8 μM to 8 nM
In short: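 Read-out is CellTiterGlo ATP luminescence after 4-day culture (37 °C, 5% CO2) of dual-SMAD-derived human ESC NSCs, dosed 4 h post-seeding at 8 μM to 8 nM (11 points, 2-fold). EC150 marks the concentration reaching 150% of the media-only control (0.25% DMSO).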

| melting point [°C] | Structure (SMILES) | EC (150% of control) [1] [µM] |
| --- | --- | --- |
| 265 | Cc1c2n(c3c(-c4ccc(CO)cc4)cc(C#N)cc13)CCNC2=O [Example 277, 6-[4-(Hydroxymethyl)phenyl]-10-methyl-1-oxo-3,4-dihydro-2H-pyrazino[1,2-a]indole-8-carbonitrile] | 0.025 |
| 318 | Cc1c2n(c3c(-c4ccc(Cl)nc4)cc(C#N)cc13)CCNC2=O [Example 278, 6-(6-Chloropyridin-3-yl)-10-methyl-1-oxo-3,4-dihydro-2H-pyrazino[1,2-a]indole-8-carbonitrile] | 0.44 |
| 266 | Cc1c2n(c3c(-c4cccc(C#N)c4)cc(C#N)cc13)CCNC2=O [Example 279, 6-(3-Cyanophenyl)-10-methyl-1-oxo-3,4-dihydro-2H-pyrazino[1,2-a]indole-8-carbonitrile] | 0.31 |
| 292 | Cc1c2n(c3c(-c4ccc(C(C)(C)C)cc4)cc(C#N)cc13)CCNC2=O [Example 280, 6-(4-tert-Butylphenyl)-10-methyl-1-oxo-3,4-dihydro-2H-pyrazino[1,2-a]indole-8-carbonitrile] | 0.14 |
| 281 | Cc1c2n(c3c(-c4ccnc(Cl)c4)cc(C#N)cc13)CCNC2=O [Example 281, 6-(2-Chloropyridin-4-yl)-10-methyl-1-oxo-3,4-dihydro-2H-pyrazino[1,2-a]indole-8-carbonitrile] | 0.22 |
| 273 | Cc1c2n(c3c(-c4cccnc4)cc(C#N)cc13)CCNC2=O [Example 282, 10-Methyl-1-oxo-6-pyridin-3-yl-3,4-dihydro-2H-pyrazino[1,2-a]indole-8-carbonitrile] | 0.96 |
| 325 | Cc1c2n(c3c(-c4cncnc4)cc(C#N)cc13)CCNC2=O [Example 283, 10-Methyl-1-oxo-6-pyrimidin-5-yl-3,4-dihydro-2H-pyrazino[1,2-a]indole-8-carbonitrile] | 1.61 |
| 187 | N#Cc1cc(-c2ccc(F)c(F)c2F)c2c(c1)cc1n2CCCNC1=O [Example 284, 1-Oxo-7-(2,3,4-trifluorophenyl)-2,3,4,5-tetrahydro-[1,4]diazepino[1,2-a]indole-9-carbonitrile] | 0.16 |
| 209 | N#Cc1cc(-c2cccc(Cl)c2)c2c(c1)cc1n2CCCNC1=O [Example 285, 7-(3-Chlorophenyl)-1-oxo-2,3,4,5-tetrahydro-[1,4]diazepino[1,2-a]indole-9-carbonitrile] | 3.12 |
| 240.5 | Cc1ccc(-c2cc(C#N)cc3cc4n(c23)CCCNC4=O)cc1 [Example 287, 7-(4-Methylphenyl)-1-oxo-2,3,4,5-tetrahydro-[1,4]diazepino[1,2-a]indole-9-carbonitrile] | 0.22 |
| 287 | Cc1ccc(-c2cc(C#N)cc3c(C)c4n(c23)CCCNC4=O)cc1 [Example 288, 11-Methyl-7-(4-methylphenyl)-1-oxo-2,3,4,5-tetrahydro-[1,4]diazepino[1,2-a]indole-9-carbonitrile] | 0.04 |
| 261 | Cc1c2n(c3c(-c4cccc(F)c4)cc(C#N)cc13)CCCNC2=O [Example 289, 7-(3-Fluorophenyl)-11-methyl-1-oxo-2,3,4,5-tetrahydro-[1,4]diazepino[1,2-a]indole-9-carbonitrile] | 0.035 |
| 265 | Cc1c2n(c3c(-c4cc(F)cc(F)c4)cc(C#N)cc13)CCCNC2=O [Example 290, 7-(3,5-Difluorophenyl)-11-methyl-1-oxo-2,3,4,5-tetrahydro-[1,4]diazepino[1,2-a]indole-9-carbonitrile] | 0.29 |
| 265 | Cc1ccc(-c2cc(C#N)cc3c(C)c4n(c23)CCCNC4=O)cc1F [Example 291, 7-(3-Fluoro-4-methylphenyl)-11-methyl-1-oxo-2,3,4,5-tetrahydro-[1,4]diazepino[1,2-a]indole-9-carbonitrile] | 0.16 |
| 232 | Cc1cc(-c2cc(C#N)cc3c(C)c4n(c23)CCNC4=O)ccc1F [Example 292, 6-(4-Fluoro-3-methylphenyl)-10-methyl-1-oxo-3,4-dihydro-2H-pyrazino[1,2-a]indole-8-carbonitrile] | 0.089 |
| 332 | Cc1c2n(c3c(-c4ccc(S(C)(=O)=O)cc4)cc(C#N)cc13)CCNC2=O [Example 294, 10-Methyl-6-(4-methylsulfonylphenyl)-1-oxo-3,4-dihydro-2H-pyrazino[1,2-a]indole-8-carbonitrile] | 0.27 |
| 278 | Cc1c2n(c3c(-c4ccc(Cl)c(C(F)(F)F)c4)cc(C#N)cc13)CCNC2=O [Example 295, 6-[4-Chloro-3-(trifluoromethyl)phenyl]-10-methyl-1-oxo-3,4-dihydro-2H-pyrazino[1,2-a]indole-8-carbonitrile] | 0.3 |
| 254 | Cc1c2n(c3c(-c4ccc(Cl)c(Cl)c4)cc(C#N)cc13)CCCNC2=O [Example 296, 7-(3,4-Dichlorophenyl)-11-methyl-1-oxo-2,3,4,5-tetrahydro-[1,4]diazepino[1,2-a]indole-9-carbonitrile] | 0.2 |
| 247.5 | Cc1c2n(c3c(-c4ccc(Cl)c(F)c4)cc(C#N)cc13)CCCNC2=O [Example 297, 7-(4-Chloro-3-fluorophenyl)-11-methyl-1-oxo-2,3,4,5-tetrahydro-[1,4]diazepino[1,2-a]indole-9-carbonitrile] | 0.096 |
| 260 | Cc1c2n(c3c(-c4cccnc4)cc(C#N)cc13)CCCNC2=O [Example 298, 11-Methyl-1-oxo-7-pyridin-3-yl-2,3,4,5-tetrahydro-[1,4]diazepino[1,2-a]indole-9-carbonitrile] | 1 |
